The structures appear in SMILES notation.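 Protocol summary: plate cells (96-well), add compound at 5 concentrations, incubate 48 h, interpolate endpoints linearly. TGI: total growth inhibition.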 Some results are limits rather than exact numbers.

Some test systems named below: 786-0 renal; A549 NSCLC; ACHN renal; CCRF-CEM leukemia; K-562 leukemia; NCI-H460 lung; SF-539 CNS; SW-620 colon.
Holding throughout (test): NCI anticancer screen, dose series, 48 h

As to `COc1cc2c(cc1OC)-c1c(cnn1C1OC(COC(C)=O)C(OC(C)=O)C(OC(C)=O)C1OC(C)=O)CC2` (configuration not stated), the TGI with 786-0 renal, in the test on A549 NSCLC, with ACHN renal, in the test with CCRF-CEM leukemia, with K-562 leukemia and in the test on NCI-H460 lung was above 100 µM each time. Further, the TGI in the test on SF-539 CNS and in the test with SW-620 colon was above 100 µM in each case.

Take `O=C(Nc1ccc(C(F)(F)F)cc1[N+](=O)[O-])C(=O)C(C(=O)c1ccc2ccccc2c1)C1OC(=O)c2ccccc21` (configuration not stated): the TGI in the test on 786-0 renal was 19.5 µM; in the test on A549 NSCLC it was above 71.3 µM; in the test on ACHN renal, above 84.9 µM; with CCRF-CEM leukemia, 35.5 µM; in the test with K-562 leukemia, 47.8 µM; in the test with NCI-H460 lung, 15.6 µM. In addition, the results for the TGI in the test with SF-539 CNS and with SW-620 colon were 5.03 µM and 21.9 µM, respectively.

As to `O=[N+]([O-])c1ccc(Cc2nc3ccccc3s2)cc1`, the TGI with 786-0 renal, in the test with A549 NSCLC, in the test on ACHN renal, with CCRF-CEM leukemia, with K-562 leukemia and with NCI-H460 lung was above 100 µM throughout. The TGI with SF-539 CNS is 70.4 µM; in the test with SW-620 colon, above 100 µM.

As for `Cc1ccccc1C(C#N)/C(=N/NC(=O)c1cc2ccccc2cc1O)C(=O)Nc1cccc(Cl)c1` (configuration not stated), the TGI in the test on 786-0 renal, with A549 NSCLC, with ACHN renal, in the test with CCRF-CEM leukemia, with K-562 leukemia and in the test with NCI-H460 lung was above 100 µM throughout. The values for the TGI in the test with SF-539 CNS and with SW-620 colon were 69.9 µM and above 100 µM, respectively.

With `COc1ccccc1NC(=O)CC(=O)n1nc(C)c(N=Nc2ccccc2F)c1C`, the TGI in the test with 786-0 renal was above 100 µM; with A549 NSCLC, above 100 µM; in the test with ACHN renal, above 100 µM; in the test on K-562 leukemia, above 31.6 µM; with NCI-H460 lung, above 100 µM; in the test with SF-539 CNS, above 64 µM. The TGI in the test on SW-620 colon was above 100 µM.

As for `CCCCOC(=O)/C(CC(=O)C=C(C)C)=N\NS(=O)(=O)c1ccc(C)cc1`, the TGI in the test on 786-0 renal, with A549 NSCLC, with ACHN renal, in the test on CCRF-CEM leukemia, in the test with K-562 leukemia and in the test on NCI-H460 lung was above 100 µM each time. In the test with SF-539 CNS, this molecule gave a TGI above 100 µM.

On to `O=C1CCC(c2nc3ccccc3o2)C(=O)N1` (configuration not stated), for which the TGI with 786-0 renal, in the test on A549 NSCLC, in the test on ACHN renal, in the test with CCRF-CEM leukemia, in the test with K-562 leukemia and in the test on NCI-H460 lung was above 100 µM in each case. For the same molecule, the TGI in the test on SF-539 CNS and in the test on SW-620 colon was above 100 µM in each case.

Turning to `N#CCCc1nc2ccc(Br)cc2c(=O)n1-c1ccc(O)c([N+](=O)[O-])c1`, the TGI is 43.2 µM in the test on 786-0 renal; above 100 µM in the test with A549 NSCLC; above 100 µM in the test on ACHN renal; 71.7 µM in the test on CCRF-CEM leukemia; 61.9 µM with K-562 leukemia; 66.9 µM in the test on NCI-H460 lung. The TGI in the test on SF-539 CNS was found to be 34.4 µM; in the test with SW-620 colon it was 46.8 µM.

Consider `COc1ccc(C2(CN(C)C)COc3cc(OC)c(OC)cc3C2=O)cc1OC` (configuration not stated), for which the TGI in the test on 786-0 renal was above 100 µM; in the test on A549 NSCLC, above 100 µM; in the test on ACHN renal it was above 100 µM; with CCRF-CEM leukemia, 58.1 µM; in the test on K-562 leukemia, above 100 µM; with NCI-H460 lung it was above 100 µM. The TGI is above 100 µM in the test with SF-539 CNS and 45.8 µM in the test with SW-620 colon.

Take `CCc1ccccc1NC(=O)CCc1nc(=S)[nH][nH]1`: the TGI with 786-0 renal, with A549 NSCLC, with ACHN renal, with CCRF-CEM leukemia, in the test on K-562 leukemia and in the test on NCI-H460 lung was above 100 µM throughout. The TGI in the test on SF-539 CNS and in the test with SW-620 colon was above 100 µM in each case.

With `Cc1cc2c(cn1)C(=O)OCC2`, the TGI in the test on 786-0 renal, in the test on A549 NSCLC, in the test with ACHN renal, with CCRF-CEM leukemia, with K-562 leukemia and in the test with NCI-H460 lung was above 100 µM in each case. Besides, the TGI in the test on SF-539 CNS and in the test with SW-620 colon was above 100 µM each time.

Consider `Cc1cc2c(C(C)C)c(O)c(O)c3coc(/c1=c1/c(C)cc4c(C(C)C)c(=O)c(=O)c5coc1c45)c32`, for which the TGI turned out to be 22.1 µM in the test on 786-0 renal; 15.6 µM in the test with A549 NSCLC; 12.3 µM in the test on ACHN renal; 16.6 µM in the test with CCRF-CEM leukemia; 16.5 µM with K-562 leukemia; 16.2 µM in the test on NCI-H460 lung. The TGI worked out at 12.9 µM with SF-539 CNS and 17.4 µM in the test on SW-620 colon.

For `Cc1ccc2sc3cc(=O)cc(C)c-3nc2c1`, the TGI in the test with 786-0 renal is above 100 µM; with A549 NSCLC it was above 100 µM; in the test on ACHN renal, above 100 µM; in the test with CCRF-CEM leukemia, 93.8 µM; in the test on K-562 leukemia, above 100 µM; in the test with NCI-H460 lung, above 100 µM. Moreover, the TGI with SF-539 CNS and in the test with SW-620 colon was above 100 µM throughout.

Take `N=C(c1ccccc1)N1CCCCC1`: the TGI with 786-0 renal, with A549 NSCLC, in the test with NCI-H460 lung, with SF-539 CNS and with SW-620 colon was above 100 µM throughout.

In the case of `O=S(=O)(O)C(F)(F)C(F)(F)C(F)(F)C(F)(F)F`, the TGI with 786-0 renal, in the test on A549 NSCLC, in the test with ACHN renal, in the test on CCRF-CEM leukemia, in the test with K-562 leukemia and with NCI-H460 lung was above 100 µM in each case. In addition, the TGI in the test on SF-539 CNS and with SW-620 colon was above 100 µM throughout.

As for `CCNC(=O)C(O)C1(O)CCC2[C@@H]3CCC4=CC(=O)C=C[C@]4(C)C3[C@@H](O)C[C@@]21C` (some centres not stated), the TGI with 786-0 renal, with A549 NSCLC, with ACHN renal, with CCRF-CEM leukemia, in the test with K-562 leukemia and in the test on NCI-H460 lung was above 100 µM in each case. Further, the TGI with SF-539 CNS and in the test with SW-620 colon was above 100 µM each time.

With `C/C(=N\NC(N)=S)c1ccc2c(c1)OCO2`, the TGI in the test on 786-0 renal, with A549 NSCLC, in the test on ACHN renal, in the test with CCRF-CEM leukemia, with K-562 leukemia and in the test on NCI-H460 lung was above 100 µM throughout. In addition, the TGI in the test on SF-539 CNS and in the test on SW-620 colon was above 100 µM throughout.

For `CCCOc1ccc(/C=C/c2cc(OC)c(OC)c(OC)c2)cc1`, the TGI is above 56.3 µM with 786-0 renal; above 100 µM with A549 NSCLC; above 100 µM with ACHN renal; 24.5 µM with CCRF-CEM leukemia; above 100 µM in the test on K-562 leukemia; above 32.4 µM with NCI-H460 lung. In addition, the values for the TGI with SF-539 CNS and in the test with SW-620 colon were 0.754 µM and above 100 µM, respectively.

Regarding `O=S(=O)(CC1=NC2C=CC=CC2N=C1)NCc1ccccc1` (configuration not stated), the TGI in the test with 786-0 renal, in the test with A549 NSCLC, in the test with ACHN renal, in the test with CCRF-CEM leukemia, in the test on K-562 leukemia and with NCI-H460 lung was above 100 µM in each case. Moreover, the TGI in the test with SF-539 CNS and with SW-620 colon was above 100 µM each time.

`CSC(=S)N(C)c1nc(=[N+](C)C)ss1`: the TGI with 786-0 renal, in the test on A549 NSCLC, in the test with ACHN renal, in the test with CCRF-CEM leukemia, with K-562 leukemia and in the test with NCI-H460 lung was above 100 µM in each case. Besides, the TGI in the test with SF-539 CNS and in the test on SW-620 colon was above 100 µM throughout.

In the case of `C/C(=N\NC(N)=S)c1ccc(/C(C)=N/NC(N)=S)cc1`, the TGI in the test on 786-0 renal, in the test with A549 NSCLC, with ACHN renal, with CCRF-CEM leukemia, in the test on K-562 leukemia and with NCI-H460 lung was above 100 µM in each case. Moreover, the TGI in the test on SF-539 CNS and in the test on SW-620 colon was above 100 µM throughout.

`CCCCCCCCCCCCCCCC(=O)NC1CCc2cc(O)c(O)c(O)c2-c2ccc(SC)c(=O)cc21` (configuration not stated): the TGI in the test on 786-0 renal is 33.3 µM; in the test on A549 NSCLC it was 15.5 µM; with ACHN renal, 22.4 µM; in the test with CCRF-CEM leukemia, 46.2 µM; with K-562 leukemia, above 40.7 µM; in the test on NCI-H460 lung it was 19.6 µM. In addition, the figures for the TGI in the test with SF-539 CNS and in the test on SW-620 colon were 9.2 µM and 19 µM, respectively.

As to `COC(=O)c1c/c(=N\NC(=O)CC(=O)Nc2ccccc2Cl)c2ccccc2o1`, the TGI in the test on 786-0 renal, with A549 NSCLC, in the test with ACHN renal, with K-562 leukemia, in the test on NCI-H460 lung and in the test with SF-539 CNS was above 100 µM throughout. In the test on SW-620 colon, this molecule came in with a TGI above 100 µM.

On to `Cc1cccc(C(C)(C)C)c1NC(=O)CC1C(=O)Nc2ccccc2S1=O` (configuration not stated), for which the TGI in the test with 786-0 renal, in the test with A549 NSCLC, with ACHN renal, with K-562 leukemia, with NCI-H460 lung and in the test on SF-539 CNS was above 100 µM in each case. The molecule also registered a TGI with SW-620 colon above 100 µM.

For the molecule `O=C(CC(=O)Nc1ccc(Cl)cc1)NNCC(=O)Nc1nc(-c2ccccc2)cs1`, the TGI with 786-0 renal, with A549 NSCLC, with CCRF-CEM leukemia, in the test with K-562 leukemia, in the test with NCI-H460 lung and in the test with SF-539 CNS was above 100 µM in each case. The molecule also gave a TGI with SW-620 colon above 100 µM.

Values taken from PubChem BioAssay (NCI).
